{"source": "patent US5314884A", "about": "“2-pyrimidinyl-1-piperazine derivatives processes for their preparation and medicaments containing them” (Troponwerke GmbH & Co., priority 1983, dated 1994)", "key": {"[1]": {"target": "T1, serotonin receptors from calf hippocampus (Bos taurus, UniProt F6Q2H9)", "T1 construct": "serotonin receptors from calf hippocampus; from tissue; host or cells: calf hippocampus", "T1 sequence (F6Q2H9 1-422)": "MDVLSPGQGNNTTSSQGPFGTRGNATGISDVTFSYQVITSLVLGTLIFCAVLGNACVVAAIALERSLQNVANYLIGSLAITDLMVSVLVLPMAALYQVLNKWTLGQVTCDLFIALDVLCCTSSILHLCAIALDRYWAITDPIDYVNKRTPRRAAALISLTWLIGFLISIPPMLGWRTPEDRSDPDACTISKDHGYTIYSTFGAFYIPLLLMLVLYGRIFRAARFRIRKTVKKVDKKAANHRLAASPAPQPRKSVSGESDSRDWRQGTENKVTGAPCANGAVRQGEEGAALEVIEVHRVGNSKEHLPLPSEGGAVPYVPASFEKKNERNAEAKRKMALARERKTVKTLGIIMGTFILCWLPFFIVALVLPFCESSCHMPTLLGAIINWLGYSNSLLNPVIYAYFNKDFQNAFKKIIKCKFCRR", "experiment": "Serotonin receptor binding (3H-serotonin displacement)", "settings": "read-out: Ki (concentration at which 50% of the 3H-serotonin employed is displaced)", "from_the_text": "The direct or indirect effect on the serotonergic system by, for example, anxiolytic, tranquillising, neuroleptic or antidepressant active compounds is known. Substances according to the invention interact specifically with serotonin receptors from calf hippocampus. The concentration at which 50% of the ^3 H-serotonin employed is displaced is reported (Ki values). Lit.: Peroutka, S. J. and S. H. Snyder, Molec. Pharmacol. 16, 687, 1979."}, "[2]": {"test_system": "amphetamine-induced stereotypic behaviour", "experiment": "Amphetamine potentiation", "type": "in vivo", "settings": "ip; rat; i.p.; 2 mg/kg DL-amphetamine sulphate i.v.; read-out: ED50 (dose at which amphetamine-induced behaviour is potentiated by 50%)", "procedure": "Substances having antidepressant effects potentiate the amphetamine-inducedstereotypic behaviour of the rat. The ED50 value which is given is the dose at which the behaviour induced after i.v. administration of 2 mg/kg DL-amphetamine sulphate is potentiated by 50%. Lit.: J. L. Howard et al., in: Antidepressants: Neurochemical, Behavioral and Clinical Perspectives, edited by S. J. Enna et al., Raven Press, New York, Pages 107-120, 1981."}, "[3]": {"test_system": "Passive avoidance behaviour", "experiment": "Passive avoidance behaviour", "type": "in vivo", "settings": "Rattus norvegicus, ip; rats; i.p.; electric shock, time to re-entry of darkened box; read-out: ED50 (text: minimum effective dose (MED))", "from_the_text": "After entering a darkened box, rats receive an electric shock and thus avoid reentering the box. Rats under the influence of anxiolytics enter the box in spite of having experience the shock. The time up to entry into the box is timed with a stopwatch. The minimum effective dose (MED) in mg/kg is reported."}, "[4]": {"test_system": "shock-induced aggressive behaviour", "experiment": "Tedeschi test", "type": "in vivo", "settings": "Mus musculus, ip; mice; i.p.; shock-induced aggression; read-out: ED50 (dose at which aggressive behaviour is reduced by 50%)", "from_the_text": "In mice, anxiolytics bring about a reduction in the shock-induced aggressive behaviour. The ED50 value indicates the dose at which the aggressive behaviour is reduced by 50% within the period of the experiment.\nLit.: Tedeschi et all, J. Pharmacol. Exp. Ther. 129, 28-34, 1954."}, "immobility": {"test_system": "immobility", "experiment": "Behavioral Despair", "type": "in vivo", "settings": "Rattus norvegicus, ip; rats; i.p.; glass cylinder filled with water; read-out: ED50 (dose at which immobility is reduced by 50%)", "from_the_text": "When placed in a glass cylinder filled with water, rats initially show vigorous swimming movements which alternate with phases of immobility which increase in length. Many antidepressants of a variety of chemical structures shorten the duration of this immobility. The ED50 value indicates the dose of a test substance at which the immobility during the period of the experiment is reduced by 50%.\nLit.: R. D. Porsolt et al., Europ. J. Pharmacol. 47, 379-391, 1978."}, "[5]": {"test_system": "ptosis induced by tetrabenazine", "experiment": "Tetrabenazine antagonism", "type": "in vivo", "settings": "Mus musculus, ip; mice; i.p.; tetrabenazine 20 mg/kg i.p.; read-out: ED50 (dose at which tetrabenazine-induced ptosis is reduced to 50%)", "procedure": "Antidepressants antagonise the ptosis induced by tetrabenazine in mice. The ED50 value indicates the dose at which the ptosis induced by tetrabenazine (20 mg/kg i.p.) is reduced to 50%. Lit.: J. L. Howard et al., in: Antidepressants; Neuochemical, Behavioral and Clinical Perspectives, edited by S. J. Enna et al., Raven Press, New York, pages 117-120, 1981."}}, "note": "Counter-ions that a name gives are not always drawn.", "data": [{"smiles": "O=C1Cc2ccccc2C(=O)N1CCCCN1CCN(c2ncccn2)CC1", "note": "[Example 19, 2-(4-(4-(2-pyrimidinyl)-1-piperazinyl)butyl)isoquinoline-1,3(2H,4H)dione]", "values": [{"measurement": "IC50", "setting": "[1]", "result": 30, "unit": "nM"}]}, {"smiles": "COc1ccc(-c2cnc(N3CCN(CCCCN4C(=O)Cc5ccccc5C4=O)CC3)nc2)cc1OC", "note": "[Example 20, 2-(4-(4-(5-(3,4-Dimethoxyphenyl)-2-pyrimidinyl)-1-piperazinyl)butyl)-isoquinoline-1,3(2H,4H)dione]", "values": [{"measurement": "ED50", "setting": "[2]", "result": 5, "unit": "mg/kg"}]}, {"smiles": "O=C1c2ccc(Cl)cc2S(=O)(=O)N1CCCCN1CCN(c2ncccn2)CC1", "note": "[Example 11, 2-(4-(4-(2-Pyrimidinyl)-1-piperazinyl)butyl)-6-chloro-1,2-benzisothiazol-3(2H)one 1,1-dioxide]", "values": [{"measurement": "minimal effective dose", "setting": "[3]", "result": 1, "unit": "mg/kg"}, {"measurement": "IC50", "setting": "[1]", "result": 30, "unit": "nM"}]}, {"smiles": "O=C1Nc2ccccc2S(=O)(=O)N1CCCCN1CCN(c2ncccn2)CC1", "note": "[Example 33, 2-(4-(4-(2-Pyrimidinyl)-1-piperazinyl)butyl)-1,2,4-benzothiadiazin-3(4H)one 1,1-dioxide]", "values": [{"measurement": "IC50", "setting": "[1]", "result": 60, "unit": "nM"}]}, {"smiles": "NCCCCN1CCN(c2ncc(-c3c(F)cccc3Cl)cn2)CC1", "note": "[Example 50, 1-(4-Aminobutyl)-4-(5-(2-fluoro-6-chlorophenyl)-2-pyrimidinyl)piperazinehydrochloride]", "values": [{"measurement": "ED50", "setting": "[2]", "result": 3, "unit": "mg/kg"}, {"measurement": "ED50", "setting": "[4]", "result": 32, "unit": "mg/kg"}]}, {"smiles": "O=C1c2ccccc2C(=O)N1CCN1CCN(c2ncc(-c3ccc(Cl)cc3)cn2)CC1", "note": "[Example 15, 1-(2-(4-(5-(4-Chlorophenyl)-2-pyrimidinyl)-1-piperazinyl)ethyl)isoindole-1,3(2H)dione]", "values": [{"measurement": "ED50", "setting": "[4]", "result": 6, "unit": "mg/kg"}]}, {"smiles": "NCCCCN1CCN(c2ncc(-c3ccccc3)cn2)CC1", "note": "[Example 49, 1-(4-aminobutyl)-5-(5-phenyl-2-phenyl-2-pyrimidinyl)piperazine]", "values": [{"measurement": "ED50", "setting": "[2]", "result": 3, "unit": "mg/kg"}]}, {"smiles": "CN1C(=O)N(CCCCN2CCN(c3ncccn3)CC2)S(=O)(=O)c2ccccc21", "note": "[Example 37, 2-(4-(4-(2-Pyrimidinyl)-1-piperazinyl)butyl)-4-methyl-1,2,4-benzothiadiazin-3(4H)one 1,1-dioxide]", "values": [{"measurement": "IC50", "setting": "[1]", "result": 80, "unit": "nM"}]}, {"smiles": "CCOC(=O)N1CCN(c2ncc(-c3ccccc3)cn2)CC1", "note": "[Example 54, ethyl 4-(5-phenyl-2-pyrimidinyl)-1-piperazinecarboxylate]", "values": [{"measurement": "ED50", "setting": "[2]", "result": 0.4, "unit": "mg/kg"}, {"measurement": "ED50", "setting": "immobility", "result": 20, "unit": "mg/kg"}, {"measurement": "ED50", "setting": "[4]", "result": 10, "unit": "mg/kg"}, {"measurement": "minimal effective dose", "setting": "[3]", "result": 5, "unit": "mg/kg"}]}, {"smiles": "Fc1cccc(Cl)c1-c1cnc(N2CCNCC2)nc1", "note": "[Example 61, 1-(5-(2-Fluoro-6-chlorophenyl)-2-pyrimidinyl)piperazine]", "values": [{"measurement": "ED50", "setting": "[2]", "result": 5, "unit": "mg/kg"}]}, {"smiles": "O=C1c2cc(Cl)ccc2S(=O)(=O)N1CCCCN1CCN(c2ncccn2)CC1", "note": "[Example 10]", "values": [{"measurement": "minimal effective dose", "setting": "[3]", "result": 1, "unit": "mg/kg"}, {"measurement": "IC50", "setting": "[1]", "result": 14, "unit": "nM"}]}, {"smiles": "O=C1c2ccccc2C(=O)N1CC(O)CN1CCN(c2ncc(-c3ccc(Cl)cc3)cn2)CC1", "note": "(stereo not drawn) [Example 18, 2-(3-(4-(5-(4-chlorophenyl)-2-pyrimidinyl)-1-piperazinyl)-2-hydroxypropyl)isoindole-1,3(2H)dione]", "values": [{"measurement": "ED50", "setting": "[5]", "result": 21, "unit": "mg/kg"}, {"measurement": "ED50", "setting": "[4]", "result": 9, "unit": "mg/kg"}, {"measurement": "minimal effective dose", "setting": "[3]", "result": 1, "unit": "mg/kg"}]}, {"smiles": "O=C1c2ccccc2S(=O)(=O)N1CCCCN1CCN(c2ncccn2)CC1", "note": "[Example 7, 2-(4-(4-(2-Pyrimidinyl)-1-piperazinyl)butyl)-1,2-benzisothiazol-3-(2H)one 1,1-dioxide]", "values": [{"measurement": "ED50", "setting": "[4]", "result": 5, "unit": "mg/kg"}, {"measurement": "minimal effective dose", "setting": "[3]", "result": 0.5, "unit": "mg/kg"}]}, {"smiles": "O=C1c2ccccc2C(=O)N1CCCCN1CCN(c2ncc(-c3c(F)cccc3Cl)cn2)CC1", "note": "[Example 8, 2-(4-(4-(5-(2-Chloro-6-fluorophenyl)-2-pyrimidinyl)-1-piperazinyl)butyl)-isoindole-1,3(2H)dione]", "values": [{"measurement": "ED50", "setting": "[2]", "result": 1, "unit": "mg/kg"}, {"measurement": "ED50", "setting": "immobility", "result": 33, "unit": "mg/kg"}, {"measurement": "ED50", "setting": "[4]", "result": 12, "unit": "mg/kg"}]}, {"smiles": "O=C1c2ccc([N+](=O)[O-])cc2S(=O)(=O)N1CCCCN1CCN(c2ncccn2)CC1", "note": "[Example 24, 2-(4-(4-(2-Pyrimidinyl)-1-piperazinyl)butyl)-6-nitro-1,2-benzisothiazol-3(2H)one 1,1-dioxide]", "values": [{"measurement": "IC50", "setting": "[1]", "result": 20, "unit": "nM"}]}, {"smiles": "O=C1Nc2ccccc2S(=O)(=O)N1CCCN1CCN(c2ncccn2)CC1", "note": "[Example 32, 2-(3-(4-(2-Pyrimidinyl)-1-piperazinyl)propyl)1,2,4-benzothiadiazin-3(4H)on 1,1-dioxide]", "values": [{"measurement": "IC50", "setting": "[1]", "result": 10, "unit": "nM"}]}, {"smiles": "COc1ccc(-c2cnc(N3CCN(CCCCN4C(=O)c5ccccc5C4=O)CC3)nc2)cc1OC", "note": "[Example 12, 2-(4-(4-(5-(3,4-Dimethoxyphenyl)- -2-pyrimidinyl)-1-piperazinyl)butyl)-isoindole-1,3(2H)dione]", "values": [{"measurement": "ED50", "setting": "immobility", "result": 50, "unit": "mg/kg"}, {"measurement": "ED50", "setting": "[4]", "result": 16, "unit": "mg/kg"}]}, {"smiles": "c1ccc2c(-c3cnc(N4CCNCC4)nc3)c[nH]c2c1", "note": "[Example 64, 1-(5-(3-Indolyl)-2-pyrimidinyl)piperazine]", "values": [{"measurement": "ED50", "setting": "[2]", "result": 2, "unit": "mg/kg"}, {"measurement": "ED50", "setting": "[5]", "result": 18, "unit": "mg/kg"}]}, {"smiles": "O=C1c2ccccc2C(=O)N1CCCN1CCN(c2ncc(-c3ccccc3)cn2)CC1", "note": "[Example 6, 2-(3-(4-(5-Phenyl-2-pyrimidinyl)-1-piperazinyl)propyl)isoindole-1,3(2H)dione]", "values": [{"measurement": "ED50", "setting": "[5]", "result": 40, "unit": "mg/kg"}, {"measurement": "ED50", "setting": "[4]", "result": 15, "unit": "mg/kg"}]}, {"smiles": "O=C1c2ccccc2C(=O)N1CCCCN1CCN(c2ncc(-c3ccccc3)cn2)CC1", "note": "[Example 4, 2-(4-(4-(5-phenyl-2-pyrimidinyl)-1-piperazinyl)butyl)isoindole-1,3(2H)dion]", "values": [{"measurement": "ED50", "setting": "[2]", "result": 3, "unit": "mg/kg"}, {"measurement": "ED50", "setting": "immobility", "result": 12, "unit": "mg/kg"}, {"measurement": "ED50", "setting": "[4]", "result": 20, "unit": "mg/kg"}, {"measurement": "minimal effective dose", "setting": "[3]", "result": 1, "unit": "mg/kg"}]}, {"smiles": "O=C1c2ccccc2C(=O)N1CCCCN1CCN(c2ncccn2)CC1", "note": "[Example 1, 2-(4-(4-(2-pyrimidinyl)-1-piperazinyl)butyl)isoindole-1,3(2H)dione]", "values": [{"measurement": "ED50", "setting": "[2]", "result": 18, "unit": "mg/kg"}, {"measurement": "IC50", "setting": "[1]", "result": 10, "unit": "nM"}]}, {"smiles": "CN1C(=O)N(CCCN2CCN(c3ncccn3)CC2)S(=O)(=O)c2ccccc21", "note": "[Example 36, 2-(3-(4-(2-Pyrimidinyl)-1-piperazinyl)propyl)-4-methyl-1,2,4-benzothiadiazin-3(4H)one 1,1-dioxide]", "values": [{"measurement": "IC50", "setting": "[1]", "result": 9, "unit": "nM"}]}, {"smiles": "c1ccc(-c2cnc(N3CCNCC3)nc2)cc1", "note": "[Example 60, 1-(5-phenyl-2-pyrimidinyl)piperazine]", "values": [{"measurement": "ED50", "setting": "[2]", "result": 16, "unit": "mg/kg"}, {"measurement": "ED50", "setting": "[5]", "result": 5, "unit": "mg/kg"}]}]}
